Read-outs that look alike come from different tables or passages of the source.
Columns and labels:
Assay type in all cases: in vivo
[1] = test system: Pseudaletia separate Walker; assay: Insecticidal activities to armyworm, leaf dipping and feeding
Outline: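 Maize leaves dipped 3 s in acetone-formulated compound at 500 down to 1.57 ppm, dried and fed to armyworms, 10 insects per treatment in triplicate, aqueous acetone as control. Mortality was counted after 24 hours and corrected against control survival.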

Aphis craccivoral = assay: Insecticidal activities to aphids, immersion method; settings: for mortality at 500 ppm: Aphis, read-out: Aphis craccivoral Mortality (%) 500 ppm
Outline: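 Wingless adult aphids feeding on bean sprouts were dipped 5 s in 500 ppm compound (DMF stock diluted in 0.2 mL/L aqueous Triton X-100), blotted and held at 23° C. Dead counted at 24 h, three replicates; mortality corrected against Triton-only controls.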

Plutella xylostella = assay: Insecticidal activities to diamondback moth, feeding dipped leaves; settings: for mortality at 500 ppm: Plutella xylostella, read-out: Plutella xylostella Mortality (%) 500 ppm
Outline: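 Leaf-dip feeding assay: fresh cabbage leaves dipped 3 s in test solution, air-dried and fed to Plutella xylostella, 10 insects per treatment, three replicates, water control. Deaths counted after 24 h; mortality corrected against survival in the control group.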

Nilaparvata lugens = assay: Insecticidal activities to plant hopper, spraying method; settings: for mortality at 500 ppm: Nilaparvata lugens, read-out: Nilaparvata lugens Mortality (%) 500 ppm
Outline: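 Nilaparvata lugens, 10 insects per tumbler, sprayed with 2 ml compound in acetone at 0.79-500 ppm, three replicates, aqueous acetone control. Dead insects counted after 24 h; mortality corrected against control survival.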

[2] = 500 ppm, leaf dipping and feeding, counted after 24 hours
[3] = 500 ppm, feeding dipped leaves, counted after 24 hours
[4] = 500 ppm, spraying method, counted after 24 hours

Compound | Pseudaletia separate Walker Mortality (%) 500 ppm ([1]; in vivo) | Aphis craccivoral Mortality (%) 500 ppm (Aphis craccivoral; in vivo) | Plutella xylostella Mortality (%) 500 ppm (Plutella xylostella; in vivo) | Nilaparvata lugens Mortality (%) 500 ppm (Nilaparvata lugens; in vivo) | also measured
N#CC(=Cc1cc(Cl)c(Cl)s1)C1=NCCN1Cc1ccc(Cl)nc1 [Compound 149] | 97% | 94% | 100% | 100% | 
Cc1coc(C=C(C2=[N+](C)CCN2Cc2ccc(Cl)nc2)[N+](=O)[O-])c1.[Cl-] [Compound 256] | 100% | 100% | 100% | 100% | 
CC(c1ccc(Cl)nc1)N1CCN=C1C(=Cc1cccs1)[N+](=O)[O-] (racemic) [Compound 127] | 100% | 100% | 100% | 100% | 
CC[N+]1=C(C(=Cc2ccc([N+](=O)[O-])o2)[N+](=O)[O-])N(Cc2ccc(Cl)nc2)CC1.[Cl-] [Compound 287] | 100% | 100% | 100% | 100% | 
O=[N+]([O-])C(=Cc1ccoc1)C1=NCCCN1Cc1ccc(Cl)nc1 [Compound 47] | 100% | 100% | 100% | 100% | 
O=[N+]([O-])/C(=C/c1ccco1)C1=NCCCN1Cc1ccc(Cl)nc1 [Compound 46, 1-((6-chloropyridin-3-yl)methyl)-2-(2-(furan-2-yl)-1-nitrovinyl)-1,4,5,6-tetrahydropyrimidine] |  |  |  |  | Pseudaletia separate Walker Mortality (%) 500 ppm [1, 2]: 100%; mortality at 500 ppm (Aphis craccivoral; 500 ppm, immersion method): 100%; mortality at 500 ppm (Plutella xylostella; [3]): 100%; mortality at 500 ppm (Nilaparvata lugens; [4]): 100%
O=[N+]([O-])C(=Cc1ccc([N+](=O)[O-])s1)C1=NCCN1Cc1ccc(Cl)nc1 [Compound 18] | 100% | 100% | 100% | 100% | 
CC(=C(C1=NCCN1C(C)c1ccc(Cl)nc1)[N+](=O)[O-])c1ccco1 (racemic) [Compound 133] | 90% | 48% | 68% | 50% | 
O=[N+]([O-])C(=Cc1cc(Cl)c(Cl)s1)C1=NCCN1Cc1ccc(Cl)nc1 [Compound 23] | 100% | 100% | 100% | 100% | 
N#CC(=Cc1ccc([N+](=O)[O-])o1)C1=NCCN1Cc1ccc(Cl)nc1 [Compound 142] | 100% | 100% | 100% | 100% | 
O=[N+]([O-])C(=Cc1cc(Br)c(Br)o1)C1=NCCN1Cc1cnc(Cl)s1 [Compound 77] | 100% | 100% | 100% | 100% | 
Cc1csc(C=C(C2=[N+](C)CCN2Cc2ccc(Cl)nc2)[N+](=O)[O-])c1.[Cl-] [Compound 271] | 100% | 100% | 100% | 100% | 
O=[N+]([O-])/C(=C/c1ccco1)C1=NCCN1CC1CCOC1 (stereo not shown) [Compound 91, 2-(2-(furan-2-yl)-1-nitrovinyl)-1-((tetrahydrofuran-3-yl)methyl)-4,5-dihydro-1H-imidazole] |  |  |  |  | Pseudaletia separate Walker Mortality (%) 500 ppm [1, 2]: 98%; mortality at 500 ppm (Aphis craccivoral): 87%; mortality at 500 ppm (Plutella xylostella; 24 h): 100%; mortality at 500 ppm (Nilaparvata lugens; 24 h): 100%
O=[N+]([O-])C(=Cc1sc(Cl)cc1Cl)C1=NCCN1Cc1ccc(Cl)nc1 [Compound 24] |  |  |  |  | Pseudaletia separate Walker Mortality (%) 500 ppm [1, 2]: 100%; Aphis craccivoral Mortality (%) 500 ppm (Aphis craccivoral; 500 ppm, immersion method): 100%; Plutella xylostella Mortality (%) 500 ppm (Plutella xylostella; [3]): 100%; Nilaparvata lugens Mortality (%) 500 ppm (Nilaparvata lugens; [4]): 100%
O=[N+]([O-])C(=Cc1ccc(Cl)o1)C1=NCCN1Cc1cnc(Cl)s1 [Compound 71] | 100% | 100% | 100% | 100% | 
CC[N+]1=C(C(=Cc2cccs2)[N+](=O)[O-])N(Cc2ccc(Cl)nc2)CC1.[Cl-] [Compound 291] | 100% | 100% | 100% | 100% | 

Compound | Pseudaletia separate Walker Mortality (%) 500 ppm ([1]; in vivo) | Aphis craccivoral Mortality (%) 500 ppm (Aphis craccivoral; in vivo) | Plutella xylostella Mortality (%) 500 ppm (Plutella xylostella; in vivo) | Nilaparvata lugens Mortality (%) 500 ppm (Nilaparvata lugens; in vivo) | also measured
C[N+]1=C(C(=Cc2ccc[nH]2)[N+](=O)[O-])N(Cc2ccc(Cl)nc2)CC1.[Cl-] [Compound 274] | 100% | 100% | 100% | 100% | 
O=[N+]([O-])C(=Cc1ccccc1O)C1=NCCN1Cc1ccc(Cl)nc1 [Compound 45] | 89% | 56% | 23% | 76% | 
O=[N+]([O-])C(=Cc1cnc(Cl)s1)C1=NCCN1Cc1ccc(Cl)nc1 [Compound 35] | 100% | 100% | 100% | 100% | 
CC(=C(C1=NCCN1C(C)c1ccc(Cl)nc1)[N+](=O)[O-])c1ccsc1 (racemic) [Compound 139] | 95% | 93% | 100% | 100% | 
C[N+]1=C(C(=Cc2ccc(Br)s2)[N+](=O)[O-])N(Cc2ccc(Cl)nc2)CC1.[Cl-] [Compound 263] | 100% | 100% | 100% | 100% | 
O=[N+]([O-])C(=Cc1ccsc1)C1=NCCCN1Cc1ccc(Cl)nc1 [Compound 62] | 100% | 90% | 100% | 100% | 
O=[N+]([O-])C(=Cc1cncs1)C1=NCCN1Cc1ccc(Cl)nc1 [Compound 34] | 100% | 100% | 100% | 100% | 
CC(=C(C1=NCCN1Cc1ccc(Cl)nc1)[N+](=O)[O-])c1ccc([N+](=O)[O-])o1 [Compound 113] | 100% | 80% | 100% | 100% | 
O=[N+]([O-])C(=Cc1ccc(CO)o1)C1=NCCN1Cc1cnc(Cl)s1 [Compound 82] | 100% | 100% | 100% | 100% | 
Cn1cccc1C=C(C1=NCCN1Cc1ccc(Cl)nc1)[N+](=O)[O-] [Compound 32] | 100% | 100% | 100% | 100% | 
O=[N+]([O-])C(=Cc1cc(Cl)c(Cl)o1)C1=NCCN1CC1CCOC1 (stereo not shown) [Compound 98] | 68% | 76% | 77% | 90% | 
C[N+]1=C(C(=Cc2sc(Br)cc2Br)[N+](=O)[O-])N(Cc2ccc(Cl)nc2)CC1.[Cl-] [Compound 269] | 100% | 100% | 100% | 100% | 
O=[N+]([O-])C(=Cc1cc(Cl)cs1)C1=NCCCN1Cc1ccc(Cl)nc1 [Compound 66] | 87% | 56% | 100% | 87% | 
O=[N+]([O-])/C(=C/c1ccco1)C1=NCCN1Cc1ccc(Cl)nc1 [Compound 1, 2-chloro-5-((2-(2-(furan-2-yl)-1-nitrovinyl)-4,5-dihydroimidazol-1-yl)-methyl) pyridine] |  |  |  |  | Pseudaletia separate Walker Mortality (%) 500 ppm [1, 2]: 100%; mortality at 500 ppm (Aphis craccivoral; 500 ppm, immersion method): 100%; mortality at 500 ppm (Plutella xylostella; [3]): 100%; mortality at 500 ppm (Nilaparvata lugens; [4]): 100%
CC(=C(C1=NCCN1C(C)c1ccc(Cl)nc1)[N+](=O)[O-])c1ccoc1 (racemic) [Compound 134] | 52% | 38% | 46% | 51% | 

Source: patent US8232407B2, “Nitrogenous heterocyclic compounds with insecticidal activity, and the preparation and use thereof” (East China University of Science and Technology, priority 2008, dated 2012)
